Measurements published in US4479951A, “1.4;3.6-Dianhydrohexitol nitrates substituted by purine bases, processes for their preparation and pharmaceutical compositions” (Dr. Willmar Schwabe GmbH & Co., priority 1980, dated 1984).

Tested on: mongrel dogs
Experiment: circulatory-pharmacological effectiveness on the narcotised dog, intravenous administration
Type: in vivo

Nc1ncnc2c1ncn2[C@H]1CO[C@H]2[C@@H]1OC[C@@H]2O[N+](=O)[O-] [1c/2c, 5-(9-Adenyl)-5-desoxy-1.4;3.6-dianhydro-L-iditol 2-nitrate]
APdiast: diastolic aorta pressure (40 min after i.v. 1 mg/kg): 81.0 mm.Hg
APsyst: systolic aorta pressure (40 min after i.v. 1 mg/kg): 126.6 mm.Hg
BFFem: blood flow in the A. femoralis, referred to 20 kg. body weight (40 min after i.v. 1 mg/kg): 46.3 mL/min
HF: heart frequency (40 min after i.v. 1 mg/kg): 120.7 min⁻¹
HLL: heart capacity left, referred to 20 kg. body weight (40 min after i.v. 1 mg/kg): 0.76 W
HLR: heart capacity right, referred to 20 kg. body weight (40 min after i.v. 1 mg/kg): 89.3 mW
HZV: heart minute volume, referred to 20 kg. body weight (40 min after i.v. 1 mg/kg): 3.72 L/min
LVEDP: end diastolic pressure in the left ventricle (40 min after i.v. 1 mg/kg): 4.41 mm.Hg
PAP: average pressure in the A. pulmonalis (40 min after i.v. 1 mg/kg): 14.1 ±1.8 mm.Hg
PRA: pressure in the right atrium (40 min after i.v. 1 mg/kg): 3.37 mm.Hg
SV: beat volume, referred to 20 kg. body weight (40 min after i.v. 1 mg/kg): 32.7 mL
WAP: pulmonalis resistance, referred to 20 kg. body weight (40 min after i.v. 1 mg/kg): 0.35 U
WFem: femoralis resistance, referred to 20 kg. body weight (40 min after i.v. 1 mg/kg): 0.27 KU
WTP: total peripheral resistance, referred to 20 kg. body weight (40 min after i.v. 1 mg/kg): 3.34 U
dp/dt: rate of pressure increase in the left ventricle (40 min after i.v. 1 mg/kg): 2137.5 mm.Hg/sec.
APdiast: diastolic aorta pressure (50 min after i.v. 1 mg/kg): 83.4 mm.Hg
APsyst: systolic aorta pressure (50 min after i.v. 1 mg/kg): 131.2 mm.Hg
BFFem: blood flow in the A. femoralis, referred to 20 kg. body weight (50 min after i.v. 1 mg/kg): 50.6 mL/min
HF: heart frequency (50 min after i.v. 1 mg/kg): 118.7 min⁻¹
HLL: heart capacity left, referred to 20 kg. body weight (50 min after i.v. 1 mg/kg): 0.75 W
HLR: heart capacity right, referred to 20 kg. body weight (50 min after i.v. 1 mg/kg): 83.6 mW
HZV: heart minute volume, referred to 20 kg. body weight (50 min after i.v. 1 mg/kg): 3.55 L/min
LVEDP: end diastolic pressure in the left ventricle (50 min after i.v. 1 mg/kg): 4.69 mm.Hg
PAP: average pressure in the A. pulmonalis (50 min after i.v. 1 mg/kg): 13.9 ±1.9 mm.Hg
PRA: pressure in the right atrium (50 min after i.v. 1 mg/kg): 3.43 mm.Hg
SV: beat volume, referred to 20 kg. body weight (50 min after i.v. 1 mg/kg): 32.0 mL
WAP: pulmonalis resistance, referred to 20 kg. body weight (50 min after i.v. 1 mg/kg): 0.34 U
WFem: femoralis resistance, referred to 20 kg. body weight (50 min after i.v. 1 mg/kg): 0.26 KU
WTP: total peripheral resistance, referred to 20 kg. body weight (50 min after i.v. 1 mg/kg): 3.61 U
dp/dt: rate of pressure increase in the left ventricle (50 min after i.v. 1 mg/kg): 2118.5 mm.Hg/sec.
APdiast: diastolic aorta pressure (60 min after i.v. 1 mg/kg): 87.6 mm.Hg
APsyst: systolic aorta pressure (60 min after i.v. 1 mg/kg): 133.1 mm.Hg
BFFem: blood flow in the A. femoralis, referred to 20 kg. body weight (60 min after i.v. 1 mg/kg): 50.4 mL/min
HF: heart frequency (60 min after i.v. 1 mg/kg): 114.2 min⁻¹
HLL: heart capacity left, referred to 20 kg. body weight (60 min after i.v. 1 mg/kg): 0.79 W
HLR: heart capacity right, referred to 20 kg. body weight (60 min after i.v. 1 mg/kg): 89.5 mW
HZV: heart minute volume, referred to 20 kg. body weight (60 min after i.v. 1 mg/kg): 3.73 L/min
LVEDP: end diastolic pressure in the left ventricle (60 min after i.v. 1 mg/kg): 4.78 mm.Hg
PAP: average pressure in the A. pulmonalis (60 min after i.v. 1 mg/kg): 14.1 ±2.0 mm.Hg
PRA: pressure in the right atrium (60 min after i.v. 1 mg/kg): 3.37 mm.Hg
SV: beat volume, referred to 20 kg. body weight (60 min after i.v. 1 mg/kg): 35.6 mL
WAP: pulmonalis resistance, referred to 20 kg. body weight (60 min after i.v. 1 mg/kg): 0.33 U
WFem: femoralis resistance, referred to 20 kg. body weight (60 min after i.v. 1 mg/kg): 0.26 KU
WTP: total peripheral resistance, referred to 20 kg. body weight (60 min after i.v. 1 mg/kg): 3.46 U
dp/dt: rate of pressure increase in the left ventricle (60 min after i.v. 1 mg/kg): 2118.5 mm.Hg/sec.
APdiast: diastolic aorta pressure (90 min after i.v. 1 mg/kg): 87.6 mm.Hg
APsyst: systolic aorta pressure (90 min after i.v. 1 mg/kg): 136.9 mm.Hg
BFFem: blood flow in the A. femoralis, referred to 20 kg. body weight (90 min after i.v. 1 mg/kg): 50.8 mL/min
HF: heart frequency (90 min after i.v. 1 mg/kg): 107.5 min⁻¹
HLL: heart capacity left, referred to 20 kg. body weight (90 min after i.v. 1 mg/kg): 0.82 W
HLR: heart capacity right, referred to 20 kg. body weight (90 min after i.v. 1 mg/kg): 91.5 mW
HZV: heart minute volume, referred to 20 kg. body weight (90 min after i.v. 1 mg/kg): 3.77 L/min
LVEDP: end diastolic pressure in the left ventricle (90 min after i.v. 1 mg/kg): 5.25 mm.Hg
PAP: average pressure in the A. pulmonalis (90 min after i.v. 1 mg/kg): 14.5 ±2.1 mm.Hg
PRA: pressure in the right atrium (90 min after i.v. 1 mg/kg): 3.85 mm.Hg
SV: beat volume, referred to 20 kg. body weight (90 min after i.v. 1 mg/kg): 37.1 mL
WAP: pulmonalis resistance, referred to 20 kg. body weight (90 min after i.v. 1 mg/kg): 0.32 U
WFem: femoralis resistance, referred to 20 kg. body weight (90 min after i.v. 1 mg/kg): 0.27 KU
WTP: total peripheral resistance, referred to 20 kg. body weight (90 min after i.v. 1 mg/kg): 3.59 U
dp/dt: rate of pressure increase in the left ventricle (90 min after i.v. 1 mg/kg): 2081.2 mm.Hg/sec.
APdiast: diastolic aorta pressure (120 min after i.v. 1 mg/kg): 93.7 mm.Hg
APsyst: systolic aorta pressure (120 min after i.v. 1 mg/kg): 143.4 mm.Hg
BFFem: blood flow in the A. femoralis, referred to 20 kg. body weight (120 min after i.v. 1 mg/kg): 58.6 mL/min
HF: heart frequency (120 min after i.v. 1 mg/kg): 98.7 min⁻¹
HLL: heart capacity left, referred to 20 kg. body weight (120 min after i.v. 1 mg/kg): 0.89 W
HLR: heart capacity right, referred to 20 kg. body weight (120 min after i.v. 1 mg/kg): 98.7 mW
HZV: heart minute volume, referred to 20 kg. body weight (120 min after i.v. 1 mg/kg): 3.85 L/min
LVEDP: end diastolic pressure in the left ventricle (120 min after i.v. 1 mg/kg): 6.37 mm.Hg
PAP: average pressure in the A. pulmonalis (120 min after i.v. 1 mg/kg): 15.1 ±2.3 mm.Hg
PRA: pressure in the right atrium (120 min after i.v. 1 mg/kg): 3.94 mm.Hg
SV: beat volume, referred to 20 kg. body weight (120 min after i.v. 1 mg/kg): 40.0 mL
WAP: pulmonalis resistance, referred to 20 kg. body weight (120 min after i.v. 1 mg/kg): 0.30 U
WFem: femoralis resistance, referred to 20 kg. body weight (120 min after i.v. 1 mg/kg): 0.25 KU
WTP: total peripheral resistance, referred to 20 kg. body weight (120 min after i.v. 1 mg/kg): 3.72 U
dp/dt: rate of pressure increase in the left ventricle (120 min after i.v. 1 mg/kg): 2043.7 mm.Hg/sec.
APdiast: diastolic aorta pressure (150 min after i.v. 1 mg/kg): 94.7 mm.Hg
APsyst: systolic aorta pressure (150 min after i.v. 1 mg/kg): 147.2 mm.Hg
BFFem: blood flow in the A. femoralis, referred to 20 kg. body weight (150 min after i.v. 1 mg/kg): 58.2 mL/min
HF: heart frequency (150 min after i.v. 1 mg/kg): 97.5 min⁻¹
HLL: heart capacity left, referred to 20 kg. body weight (150 min after i.v. 1 mg/kg): 0.91 W
HLR: heart capacity right, referred to 20 kg. body weight (150 min after i.v. 1 mg/kg): 98.0 mW
HZV: heart minute volume, referred to 20 kg. body weight (150 min after i.v. 1 mg/kg): 3.89 L/min
LVEDP: end diastolic pressure in the left ventricle (150 min after i.v. 1 mg/kg): 6.97 mm.Hg
PAP: average pressure in the A. pulmonalis (150 min after i.v. 1 mg/kg): 15.1 ±1.5 mm.Hg
PRA: pressure in the right atrium (150 min after i.v. 1 mg/kg): 4.03 mm.Hg
SV: beat volume, referred to 20 kg. body weight (150 min after i.v. 1 mg/kg): 41.0 mL
WAP: pulmonalis resistance, referred to 20 kg. body weight (150 min after i.v. 1 mg/kg): 0.27 U
WFem: femoralis resistance, referred to 20 kg. body weight (150 min after i.v. 1 mg/kg): 0.26 KU
WTP: total peripheral resistance, referred to 20 kg. body weight (150 min after i.v. 1 mg/kg): 3.73 U
dp/dt: rate of pressure increase in the left ventricle (150 min after i.v. 1 mg/kg): 1950.0 mm.Hg/sec.
APdiast: diastolic aorta pressure (180 min after i.v. 1 mg/kg): 91.9 mm.Hg
APsyst: systolic aorta pressure (180 min after i.v. 1 mg/kg): 143.4 mm.Hg
BFFem: blood flow in the A. femoralis, referred to 20 kg. body weight (180 min after i.v. 1 mg/kg): 59.4 mL/min
HF: heart frequency (180 min after i.v. 1 mg/kg): 95.5 min⁻¹
HLL: heart capacity left, referred to 20 kg. body weight (180 min after i.v. 1 mg/kg): 0.91 W
HLR: heart capacity right, referred to 20 kg. body weight (180 min after i.v. 1 mg/kg): 98.5 mW
HZV: heart minute volume, referred to 20 kg. body weight (180 min after i.v. 1 mg/kg): 4.03 L/min
LVEDP: end diastolic pressure in the left ventricle (180 min after i.v. 1 mg/kg): 7.69 mm.Hg
PAP: average pressure in the A. pulmonalis (180 min after i.v. 1 mg/kg): 14.9 ±1.3 mm.Hg
PRA: pressure in the right atrium (180 min after i.v. 1 mg/kg): 4.12 mm.Hg
SV: beat volume, referred to 20 kg. body weight (180 min after i.v. 1 mg/kg): 42.6 mL
WAP: pulmonalis resistance, referred to 20 kg. body weight (180 min after i.v. 1 mg/kg): 0.24 U
WFem: femoralis resistance, referred to 20 kg. body weight (180 min after i.v. 1 mg/kg): 0.24 KU
WTP: total peripheral resistance, referred to 20 kg. body weight (180 min after i.v. 1 mg/kg): 3.51 U
dp/dt: rate of pressure increase in the left ventricle (180 min after i.v. 1 mg/kg): 1593.7 mm.Hg/sec.
APdiast: diastolic aorta pressure (before i.v. 1 mg/kg (v)): 88.1 mm.Hg
APsyst: systolic aorta pressure (before i.v. 1 mg/kg (v)): 150.9 mm.Hg
BFFem: blood flow in the A. femoralis, referred to 20 kg. body weight (before i.v. 1 mg/kg (v)): 53.4 mL/min
HF: heart frequency (before i.v. 1 mg/kg (v)): 97.5 min⁻¹
HLL: heart capacity left, referred to 20 kg. body weight (before i.v. 1 mg/kg (v)): 0.83 W
HLR: heart capacity right, referred to 20 kg. body weight (before i.v. 1 mg/kg (v)): 96.0 mW
HZV: heart minute volume, referred to 20 kg. body weight (before i.v. 1 mg/kg (v)): 3.61 L/min
LVEDP: end diastolic pressure in the left ventricle (before i.v. 1 mg/kg (v)): 5.53 mm.Hg
PAP: average pressure in the A. pulmonalis (before i.v. 1 mg/kg (v)): 15.8 ±1.4 mm.Hg
PRA: pressure in the right atrium (before i.v. 1 mg/kg (v)): 3.94 mm.Hg
SV: beat volume, referred to 20 kg. body weight (before i.v. 1 mg/kg (v)): 38.3 mL
WAP: pulmonalis resistance, referred to 20 kg. body weight (before i.v. 1 mg/kg (v)): 0.38 U
WFem: femoralis resistance, referred to 20 kg. body weight (before i.v. 1 mg/kg (v)): 0.28 KU
WTP: total peripheral resistance, referred to 20 kg. body weight (before i.v. 1 mg/kg (v)): 3.94 U
dp/dt: rate of pressure increase in the left ventricle (before i.v. 1 mg/kg (v)): 2081.2 mm.Hg/sec.
